Experimental findings from article PMC11224556, “Next-generation of BBQ analogues that selectively target breast cancer” (Frontiers in Chemistry, 2024) are described below.

The target in this assay is T1, AhR (Homo sapiens, UniProt P35869).
T1 construct: This cell line stably expresses the secreted Lucia luciferase reporter gene under the control of a minimal promoter; host or cells: HT29-Lucia AhR reporter cells
T1 sequence (P35869 11-848): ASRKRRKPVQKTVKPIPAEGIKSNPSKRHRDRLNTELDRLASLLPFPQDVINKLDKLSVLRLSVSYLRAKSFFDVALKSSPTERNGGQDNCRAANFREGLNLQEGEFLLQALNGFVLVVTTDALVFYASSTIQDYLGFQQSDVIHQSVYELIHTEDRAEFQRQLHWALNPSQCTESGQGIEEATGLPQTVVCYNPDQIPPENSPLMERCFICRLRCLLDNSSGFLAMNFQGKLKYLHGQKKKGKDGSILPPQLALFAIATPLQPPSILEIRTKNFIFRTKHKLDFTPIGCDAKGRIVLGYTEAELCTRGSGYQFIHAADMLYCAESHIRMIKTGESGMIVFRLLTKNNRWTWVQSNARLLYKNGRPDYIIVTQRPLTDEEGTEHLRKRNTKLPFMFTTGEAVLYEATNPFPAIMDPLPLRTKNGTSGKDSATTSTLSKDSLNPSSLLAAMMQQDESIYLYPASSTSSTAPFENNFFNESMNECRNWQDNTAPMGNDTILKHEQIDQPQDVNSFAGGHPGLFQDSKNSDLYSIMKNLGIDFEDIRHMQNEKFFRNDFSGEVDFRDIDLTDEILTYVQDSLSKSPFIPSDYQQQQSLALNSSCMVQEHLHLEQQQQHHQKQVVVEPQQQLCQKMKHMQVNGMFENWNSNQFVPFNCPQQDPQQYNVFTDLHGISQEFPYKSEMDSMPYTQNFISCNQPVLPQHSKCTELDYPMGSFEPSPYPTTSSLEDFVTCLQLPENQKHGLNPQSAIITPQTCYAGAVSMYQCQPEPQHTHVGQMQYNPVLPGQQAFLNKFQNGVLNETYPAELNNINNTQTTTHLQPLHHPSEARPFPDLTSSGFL
The assay is described as follows: AhR transcription reporter assay (HT29-Lucia AhR cells). Type of assay: cell-based. The following applies: 1 µM, 24 h, relative to DMSO. From the text:
Our previous studies have shown that the activity of NAP-6 (2) and 10-Cl-BBQ (3) required the activation of the AhR pathway and the induction of CYP1 family of phase I metabolising enzymes ([Gilbert et al., 2020]; [Baker et al., 2021a]). Therefore, we sought to determine the activation of AhR using a stable AhR reporter assay in HT29-Lucia™ AhR cells, in the presence of each BBQ analogue (Figure 3). Activation of the AhR was indicated by enhanced luminescence caused by the translocation of the AhR to the nucleus of the cell and interaction with the xenobiotic response elements imbedded in the luciferase gene.
Stock solutions were prepared as follows and stored as 20 mM DMSO solutions at −20 °C. All cell lines were cultured in a humidified atmosphere 5% CO2 at 37 °C. The cancer cell lines were maintained in Dulbecco’s modified Eagle’s medium (DMEM) (Trace Biosciences, Australia) supplemented with 10% foetal bovine serum (FBS), 10 mM sodium bicarbonate, penicillin (100 IU/mL), streptomycin (100 μg/mL), and glutamine (4 mM). The non-cancer MCF10A cell line was cultured in DMEM:F12 (1:1) cell culture media, 5% heat inactivated horse serum, supplemented with penicillin (50 IU/mL), streptomycin (50 μg/mL), 20 mM Hepes, L-glutamine (2 mM), epidermal growth factor (20 ng/mL), hydrocortisone (500 ng/mL), cholera toxin (100 ng/mL), and insulin (10 μg/mL). The AhR reporter cell line HT29-Lucia™ (Invivogen, United States) was maintained in DMEM supplemented with 10% heat inactivated FBS, L-glutamine (2 mM), penicillin (100 IU/mL), streptomycin (100 μg/mL), 100 μg/mL Normocin™, and 100 μg/mL of the selective antibiotic Zeocin™. All cell lines were purchased from the American Type Culture Collection (ATCC), except for A2780 and A431 which were from the European Collection of Authenticated Cell Cultures (ECACC), and SJ-G2 cell line which was from Dr Mary Danks, St Jude Children’s Research hospital, Memphis, TN.
The activity of the AhR signalling pathway was measured using the stably transfected AhR cell line, HT29-Lucia™ (Invivogen, United States). This cell line stably expresses the secreted Lucia luciferase reporter gene under the control of a minimal promoter coupled with the human CYP1A1 gene entire regulatory sequence, containing six DREs. The Lucia luciferase reporter protein is readily measurable in the cell culture supernatant using QUANTI-Luc™. For the determination of AhR activity, 4 × 10^4 cells in 180 μL was plated into each well of a 96 well micro-titre plate in the absence of antibiotics and allowed to culture for 24 h prior to the addition of test compounds in a volume of 20 μL. At the indicated time, 20 μL of cell supernatant was transferred to a white luminometer plate and 50 µL of QUANTI-Luc was added immediately prior to reading the luminescence using a GloMax Explorer Luminescence Plate Reader. The promoter activity was conducted in duplicate and the values expressed as fold-change relative to DMSO (0.1%) treated cells. The AhR ligand, FICZ (6-formylindolo[3,2-b]carbazole) and AhR inhibitor CH223191 were included for study as positive and negative controls, respectively. […] Results are presented as the mean ± standard error of the mean (SEM) of analysis conducted in duplicate and repeated on three separate occasions.
For orientation: In a reporter assay the amount or activity of a reporter protein is the signal.
As for “3-Chloro-7H-benzo[de]benzo[4,5]imidazo[2,1-a]isoquinolin-7-one (10a) and 4-chloro-7H-benzo[de]benzo[4,5]imidazo[2,1-a]isoquinolin-7-one (10b) [Compound 10]”, the “AhR activation, Fold Reporter Induction” value amounted to 2.7 fold. Take “3-Nitro-7H-benzo[de]benzo[4,5]imidazo[2,1-a]isoquinolin-7-one (11a) and 4-nitro-7H-benzo[de]benzo[4,5]imidazo[2,1-a]isoquinolin-7-one (11b) [Compound 11]”: the “AhR activation, Fold Reporter Induction” value came to 10.2 fold. For “7-Oxo-7H-benzo[de]benzo[4,5]imidazo[2,1-a]isoquinoline-10-carbonitrile (9a) and 7-oxo-7H-benzo[de]benzo[4,5]imidazo[2,1-a]isoquinoline-11-carbonitrile (9b) [Compound 9]”, the “AhR activation, Fold Reporter Induction” value was 2.5 fold. Under “9-Methyl-7H-benzo[de]benzo[4,5]imidazo[2,1-a]isoquinolin-7-one (8a) and 12-methyl-7H-benzo[de]benzo[4,5]imidazo[2,1-a]isoquinolin-7-one (8b) [Compound 8]” stands 2.5 fold; under “10-Methyl-7H-benzo[de]benzo[4,5]imidazo[2,1-a]isoquinolin-7-one (7a) and 11-methyl-7H-benzo[de]benzo[4,5]imidazo[2,1-a]isoquinolin-7-one (7b) [Compound 7]”, 2.8 fold; under `Nc1ccccc1N1C(=O)c2cccc3cccc(c23)C1=O` [Compound 2, 2-(2-aminophenyl)-1H-benzo[de]isoquinoline-1,3(2H)-dione], 1.8 fold. Then `O=c1c2cccc3cccc(c32)c2nc3ccc(Cl)cc3n12` [Compound 3, 10-Chloro-7H-benzo[de]benzo[4,5]imidazo[2,1-a]isoquinolin-7-one], with 2.7 fold. Then `O=c1c2cccc3cccc(c32)c2nc3cc(Cl)ccc3n12` [Compound 4, 11-Chloro-7H-benzo[de]benzo[4,5]imidazo[2,1-a]isoquinolin-7-one], with 2.9 fold; and `O=c1c2cccc3cccc(c32)c2nc3ccccc3n12` [Compound 5, 7H-Benzo[de]benzo[4,5]imidazo[2,1-a]isoquinolin-7-one], with 3.1 fold; and `O=c1c2ccccc2cc2[nH]c3ccccc3n12` [Compound 12, Benzo[4,5]imidazo[1,2-b]isoquinolin-11(5H)-one], with 1.2 fold. In the case of `O=c1c2cccc3cccc(c4n1Cc1ccccc1N=4)c32` [Compound 13, 7H,9H-benzo[4,5]isoquinolino[1,2-b]quinazolin-7-one], the “AhR activation, Fold Reporter Induction” value was determined as 1.8 fold. Then `O=C(O)c1ccc2c3c1cccc3c(=O)n1c3ccccc3nc21` [Compound 14, reference compound], with 1.5 fold.
